Data on 21 molecules can be found in publication PMC8002823, “Synthesis and Structure–Activity Relationships of Aristoyagonine Derivatives as Brd4 Bromodomain Inhibitors with X-ray Co-Crystal Research” (Molecules, 2021).

For data set [1], the target named is T1, Brd4 bromodomain (Homo sapiens, UniProt O60885).
T1 construct: glutathione-S-transferase (GST) and His-tagged bromodomain; made in house
The data set is described as follows: Alpha-screen enzyme assay (bromodomain binding to acetylated histone peptide).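 As to all read-outs here: AlphaScreen proximity readout pairing streptavidin donor beads with anti-GST acceptor beads, with hits checked against bead interference using a TruHit control kit.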 Particulars: for inhibitory activity against Brd4 bromodomain (in words) / IC50: alpha-screen assay; for IC50: inhibition of bromodomain binding activity, calculated with Prism6.
Experimental: Bromodomain was prepared as previously described. […] Streptavidin-coated donor beads and anti-GST alpha-screen acceptor beads were added under low-light condition. […] The alpha-screen results were confirmed by using alpha-screen TruHit kits (PerkinElmer, USA).

A further data set has as its system Ty82 cells. The data set is described as follows: Cell cytotoxic assay in Ty82 cells. The class given is cell-based. Particulars: Homo sapiens; for CC50: Ty82 cell cytotoxic activity, 72 h; for IC50: TY82, cell cytotoxic activity (Table 4 head prints IC50). The protocol: (§1) For the viability experiments, Ty82 cells were seeded in 96-well plates at 30% confluency and exposed to chemicals the next day. After 72 h, WST-1 reagent was added, and absorbance at 450 nm was measured by using a Spectramax spectrophotometer (Molecular Devices, San Jose, CA, USA) in accordance with the manufacturer’s instructions. The CC50 values were calculated by using GraphPad Prism version 5 for Windows. The curves were fitted using a nonlinear regression model with a log (inhibitor) versus response formula.

The next data set concerns c-MYC. Briefly: Western blot of c-MYC level in NALM6 cells. The class given is cell-based. Particulars: 18 h treatment. The protocol:
For immunoblotting, cells were washed in PBS, lysed in 1× sample buffer (50 mmol/L Tris-HCl (pH 6.8), 10% glycerol, 2% SDS, and 3% β-mercaptoethanol), and boiled for 10 min. Lysates were subjected to SDS-PAGE followed by blotting with the indicated antibodies and detection by western blotting substrate ECL reagent (Thermo Fisher Scientific, Waltham, MA, USA). Images were produced using a SensiQ-2000 (Lugen Sci Co., Seoul, KOREA). The following antibodies were obtained from Cell Signaling Technology (Danvers, MA, USA): c-Myc (catalog no. 5605). Tubulin antibody (catalog no. T6199) was purchased from Sigma-Aldrich. HRP-conjugated anti-mouse (catalog no. NCI1430KR), and HRP-conjugated anti-rabbit (catalog no. NCI1460KR) antibodies were obtained from Thermo Scientific.
(In general: Immunoblotting shows a protein as a band on a membrane.)

Data set [2] in a line: Cell cytotoxic assay in Ty82 cells. Particulars: human, Ty82 cells; Ty82 cell cytotoxic activity, 72 h. The class given is cell-based. The protocol:
as §1

Data set [3] relates to Brd4 bromodomain. Set-up: method as in PMID 29928885. To be noted: cited from earlier work.

Each structure is given as a SMILES string. Where only a bound is given, the exact number is not on record here.

Broadly, the IC50 is the concentration at which inhibition is half-maximal. By melting point is commonly meant the temperature, or range, at which the solid turns liquid. A word on the CC50: it is the concentration at which the toxic effect on the cells reaches its halfway point. Higher therefore signals better tolerance by the cells. In turn, `CCOc1ccc2c3c1Oc1c(ccc(OC)c1OCCc1ccc(OC)cc1)C=C3N(C)C2=O` [Compound 8af, 5-Ethoxy-8-methoxy-7-(4-methoxyphenethoxy)-1-methylbenzo[6,7]oxepino[4,3,2-cd]isoindol-2(1H)-one] returned a melting point of 189 to 191 °C. Further, at Brd4 bromodomain [1], the “inhibitory activity against Brd4 bromodomain (in words)” value (from here on “inhibitory activity”) was “weak inhibitory effect” and the IC50 was 5.33 µM. Also, the CC50 in the data set with Ty82 cells was over 4 µM.

`COc1ccc2c(c1)C=C1c3c(ccc(OC)c3O2)C(=O)N1C` [Compound 8bc, 5,9-Dimethoxy-1-methylbenzo[6,7]oxepino[4,3,2-cd]isoindol-2(1H)-one] yielded a melting point of 194 to 196 °C. For the same molecule, the “increase in activity compared with 8ba” value on Brd4 bromodomain [1] (Brd4 IC50 ratio) is reported as 40 fold. Moreover, the half-inhibitory concentration (IC50) on Brd4 bromodomain [1] was 0.41 µM. The c-MYC level entry in the data set on c-MYC is “significantly decreased”. For the same molecule, in the data set on Ty82 cells, the cytotoxic concentration (CC50) stood at 0.66 µM.

For `COc1ccc2c3c1Oc1ccc(O)cc1C=C3N(C)C2=O` [Compound 8bd, 9-Hydroxy-5-methoxy-1-methylbenzo[6,7]oxepino[4,3,2-cd]isoindol-2(1H)-one], the melting point is 177 to 179 °C. The IC50 on Brd4 bromodomain [1] was 0.41 µM. For the same molecule, half-maximal cytotoxicity with Ty82 cells (CC50) was put at 0.54 µM.

With `CCN(CC)CCOc1ccc2c(c1)C=C1c3c(ccc(OC)c3O2)C(=O)N1C` [Compound 8be, 9-(2-(Diethylamino)ethoxy)-5-methoxy-1-methylbenzo[6,7]oxepino[4,3,2-cd]isoindol-2(1H)-one], the melting point lay in the range of 174 to 176 °C. Further, at Brd4 bromodomain [1], the IC50 is 0.86 µM. This molecule also came in with a CC50 with Ty82 cells of 0.56 µM.

Molecule `COc1ccc2c3c1Oc1ccc(OCc4ccccn4)cc1C=C3N(C)C2=O` [Compound 8bf, 5-Methoxy-1-methyl-9-(pyridine-2-ylmethoxy)benzo[6,7]oxepino[4,3,2-cd]isoindol-2(1H)-one] registered a melting point of 176 to 178 °C. For the same molecule, the IC50 at Brd4 bromodomain [1] is 0.91 µM. The molecule also had a 50% cytotoxic concentration (CC50) in the data set with Ty82 cells of 0.23 µM.

Consider `COc1ccc2c3c1Oc1cc4c(cc1C=C3N(C)C2=O)OCO4` [Compound 8bh, 5-Methoxy-1-methyl-[1,3]dioxolo[4”,5”.4′,5′]benzo[1′,2′:6,7]oxepino[4,3,2-cd]isoindol-2(1H)-one], for which the melting point is 237 to 239 °C. On Brd4 bromodomain [1], the “inhibitory activity” value is on record as “modest inhibition” and the IC50 is 11.1 µM. The same molecule gave a CC50 in the data set with Ty82 cells of 2.16 µM.

In the case of `CCOc1ccc2c3c1Oc1ccc(C(F)(F)F)cc1C=C3N(C)C2=O` [Compound 8bj, 5-Ethoxy-1-methyl-9-(trifluoromethyl)benzo[6,7]oxepino[4,3,2-cd]isoindol-2(1H)-one], the melting point fell in the range of 230 to 232 °C. Besides, the 50% inhibitory concentration (IC50) at Brd4 bromodomain [1] was over 9 µM. In the data set on Ty82 cells, this molecule displayed a CC50 of over 20 µM.

`CCOc1ccc2c3c1Oc1ccc(OC)cc1C=C3N(C)C2=O` [Compound 8bk, 5-Ethoxy-9-methoxy-1-methylbenzo[6,7]oxepino[4,3,2-cd]isoindol-2(1H)-one] showed a melting point of 214 to 216 °C. The IC50 on Brd4 bromodomain [1] is 0.86 µM. The c-MYC level result with c-MYC is “significantly decreased”. The molecule also registered a cytotoxic concentration (CC50) in the data set on Ty82 cells of 0.49 µM.

The molecule `CCOc1ccc2c3c1Oc1ccc(OCCN(CC)CC)cc1C=C3N(C)C2=O` [Compound 8bm, 9-(2-(Diethylamino)ethoxy)-5-ethoxy-1-methylbenzo[6,7]oxepino[4,3,2-cd]isoindol-2(1H)-one] came in with a melting point of 169 to 171 °C. In addition, the half-maximal inhibitory concentration (IC50) on Brd4 bromodomain [1] was 0.91 µM. The molecule also showed a CC50 with Ty82 cells of 0.66 µM.

In turn, `CCOc1ccc2c3c1Oc1ccc(OCc4ccccn4)cc1C=C3N(C)C2=O` [Compound 8bn, 5-Ethoxy-1-methyl-9-(pyridine-2-ylmethoxy)benzo[6,7]oxepino[4,3,2-cd]isoindol-2(1H)-one] registered a melting point of 188 to 190 °C. Moreover, the IC50 on Brd4 bromodomain [1] is 0.68 µM. In the data set with Ty82 cells, the CC50 was 0.36 µM.

The molecule `CCOc1ccc2c3c1Oc1cc4c(cc1C=C3N(C)C2=O)OCO4` [Compound 8bp, 5-Ethoxy-1-methyl-[1,3]dioxolo[4”,5”.4′,5′]benzo[1′,2′:6,7]oxepino[4,3,2-cd]isoindol-2(1H)-one] yielded a melting point of 207 to 209 °C. On Brd4 bromodomain [1], the “inhibitory activity” value is “modest inhibition” and the IC50 is 2.89 µM. This molecule registered a CC50 in the data set on Ty82 cells of 3.81 µM.

Consider `CCN(CC)c1ccc2c3c1Oc1ccc(OCC(C)C)cc1C=C3N(C)C2=O` [Compound 8ca], for which the melting point was 183 to 185 °C. In addition, at Brd4 bromodomain [1], the “inhibitory activity” value is recorded as “no inhibitory activity” and the IC50 was over 32 µM. The CC50 at 72 h in data set [2] is over 20 µM.

As to `CCN(CC)c1ccc2c3c1Oc1ccc(O)cc1C=C3N(C)C2=O` [Compound 8cb, 5-(Diethylamino)-9-hydroxy-1-methylbenzo[6,7]oxepino[4,3,2-cd]isoindol-2(1H)-one], the melting point lay within 181 to 183 °C. Further, at Brd4 bromodomain [1], the “inhibitory activity” value is “weaker inhibitory effects than 8bd and 8bl”; the IC50 was 4.89 µM. The same molecule returned a CC50 with Ty82 cells of 8 µM.

For the molecule `CCN(CC)c1ccc2c3c1Oc1ccc(O)cc1CC3N(C)C2=O` (stereo not drawn) [Compound 8cc, 5-(Diethylamino)-9-hydroxy-1-methyl-11,11a-dihydrobenzo[6,7]oxepino[4,3,2-cd]isoindol-2(1H)-one], the melting point fell in the range of 165 to 167 °C. The half-maximal inhibitory concentration (IC50) on Brd4 bromodomain [1] was 5.86 µM. In addition, the CC50 in the data set with Ty82 cells was determined as 10 µM.

The molecule `CCN(CC)c1ccc2c3c1Oc1ccc(OCc4ccccc4)cc1C=C3N(C)C2=O` [Compound 8cd, 9-(Benzyloxy)-5-(diethylamino)-1-methylbenzo[6,7]oxepino[4,3,2-cd]isoindol-2(1H)-one] registered a melting point of 185 to 188 °C. Further, on Brd4 bromodomain [1], the IC50 is over 32 µM. In the data set with Ty82 cells, this molecule returned a CC50 of over 20 µM.

In the case of `CCN(CC)c1ccc2c3c1Oc1cc4c(cc1C=C3N(C)C2=O)OCO4` [Compound 8ce, 5-(Diethylamino)-1-methyl-[1,3]dioxolo[4”,5”.4′,5′]benzo[1′,2′:6,7]oxepino[4,3,2-cd]isoindol-2(1H)-one], the melting point fell in the range of 199 to 201 °C. Besides, the IC50 at Brd4 bromodomain [1] was 7.29 µM. Besides, in the data set on Ty82 cells, the CC50 was found to be 10 µM.

Consider `CCCc1ccc2c3c1Oc1ccc(OCC(C)C)cc1C=C3N(C)C2=O` [Compound 8da, 9-Isobutoxy-1-methyl-5-propylbenzo[6,7]oxepino[4,3,2-cd]isoindol-2(1H)-one], for which the melting point is 196 to 199 °C. Moreover, the IC50 on Brd4 bromodomain [1] was 6.64 µM. In the data set on Ty82 cells, this molecule showed an IC50 of 10 µM.

For `CCCc1ccc2c3c1Oc1ccc(C(F)(F)F)cc1C=C3N(C)C2=O` [Compound 8db, 1-Methyl-5-propyl-9-(trifluoromethyl)benzo[6,7]oxepino[4,3,2-cd]isoindol-2(1H)-one], the melting point was 239 to 241 °C. Further, at Brd4 bromodomain [1], the IC50 was over 32 µM. The molecule further came in with an IC50 with Ty82 cells of over 20 µM.

On to `CCCc1ccc2c3c1Oc1ccc(OCc4ccccc4)cc1C=C3N(C)C2=O` [Compound 8dd, 9-(Benzyloxy)-1-methyl-5-propylbenzo[6,7]oxepino[4,3,2-cd]isoindol-2(1H)-one], for which the melting point lay in the range of 203 to 205 °C. Also, on Brd4 bromodomain [1], the IC50 was 9 µM. The same molecule yielded a 50% inhibitory concentration (IC50) with Ty82 cells of 10 µM.

`CCCc1ccc2c3c1Oc1cc4c(cc1C=C3N(C)C2=O)OCO4` [Compound 8de, 1-methyl-5-propyl-[1,3]dioxolo[4”,5”.4′,5′]benzo[1′,2′:6,7]oxepino[4,3,2-cd]isoindol-2(1H)-one] had a melting point of 257 to 259 °C. Moreover, on Brd4 bromodomain [1], the IC50 is 2.69 µM. Besides, the IC50 in the data set on Ty82 cells is 4.5 µM.

On to `COc1ccc2c(c1OC)Oc1c(OC)ccc3c1C(=C2)N(C)C3=O` [aristoyagonine], for which, in the data set on Brd4 bromodomain [3], the “inhibition of binding of Brd4 bromodomain to acetylated histone peptide (in words)” value was “efficiently inhibited”.
